# US11000033B2, “Ketone or oxime compound, and herbicide” (NISSAN CHEMICAL CORPORATION, priority 2014, dated 2021)
# Experiments:
# Assay type in all cases: in vivo
# Scirpus juncoides [1] = test: Test Example 1: herbicidal activity, application before weed generation in submerged conditions (symbol B); details: application herbicide amount 320 g/ha
# Summary of the method: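 Application before weed emergence: an aqueous dilution of the emulsion formulation was poured onto the surface of 4 cm-deep floodwater on the day of sowing. Effect was judged after 3 weeks (greenhouse, 25–30 °C).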
# [2] = system: Echinochloa oryzacola Vasing.; test: Test Example 2: herbicidal activity, application during weed generation in submerged conditions (symbol A); details: Table 23; application herbicide amount 320 g/ha; grade 0-5 by criteria of Test Example 1
# Summary of the method: (§1)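 Scoring of herbicidal effect took place 3 weeks after treatment, using the criteria of the earlier test. Treatment was water-surface application of diluted emulsifiable compound at a set dose. Plants were at one- to two-leaf stage in submerged alluvial soil (4 cm depth), greenhouse 25-30° C.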
# Scirpus juncoides [3] = test: Test Example 2: herbicidal activity, application during weed generation in submerged conditions (symbol B); details: Table 23; application herbicide amount 320 g/ha; grade 0-5 by criteria of Test Example 1
# Summary of the method: as §1
# Cyperus difformis = test: Test Example 3: herbicidal effect by foliage application, Wagner pot (symbol E); details: application herbicide amount 320 g/ha
# Summary of the method: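 Foliar spray of a water-diluted emulsion at a predetermined herbicide amount, applied to 14-day-old plants. Seedlings were raised in flooded alluvial soil (0.1–0.5 cm water) at 25–30 °C in a greenhouse. Injury was rated after 3 weeks against fixed criteria.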
# Stellaria media = test: Test Example 4: herbicidal effect by soil treatment (symbol P); details: application herbicide amount 320 g/ha
# Summary of the method: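 Seeds were sown in sterilized diluvial soil, covered with about 1.5 cm of soil, and the soil surface was sprayed with a water-diluted emulsion of the compound at a predetermined rate. Plants grew in a greenhouse at 25° C. to 30° C.; effects were scored visually 3 weeks after application.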
# corn = test: Test Example 4: effect on crop by soil treatment (symbol c); details: application herbicide amount 320 g/ha
# Summary of the method: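 Diluvial soil (sterilized) in boxes; seeds placed spot-wise alongside weed species; ~1.5 cm covering soil. Greenhouse, 25–30° C.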
# Amaranthus retroflexus = test: Test Example 5: herbicidal effect by foliage application, plastic box (symbol N); details: 320 g/ha, 3 weeks after application
# Summary of the method: (§2)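 Leaf-applied emulsion, water-diluted to a preset herbicide dose, on two-week-old seedlings raised in a 25° C. to 30° C. greenhouse; injury rated at 3 weeks using earlier criteria.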
# Galium spurium = test: Test Example 5: herbicidal effect by foliage application, plastic box (symbol Q); details: 320 g/ha, 3 weeks after application
# Summary of the method: as §2
# Veronica persica = test: Test Example 5: herbicidal effect by foliage application, plastic box (symbol R); details: 320 g/ha, 3 weeks after application
# Summary of the method: as §2
# soybean = test: Test Example 5: effect on crop by foliage application, plastic box (symbol d); details: 320 g/ha, 3 weeks after application
# Summary of the method: (§3)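 Greenhouse test at 25° C. to 30° C. Seeds of crops and weeds were spot-sown in boxes of sterilized diluvial soil under roughly 1.5 cm soil cover, then grown for foliage treatment.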
# rice plant = test: Test Example 5: effect on crop by foliage application, plastic box (symbol b); details: 320 g/ha, 3 weeks after application
# Summary of the method: as §3
# wheat = test: Test Example 5: effect on crop by foliage application, plastic box (symbol e); details: 320 g/ha, 3 weeks after application
# Summary of the method: as §3
SMILES,"Herbicidal effect grade, B: Scirpus juncoides (Scirpus juncoides [1])","Herbicidal effect grade, A: Echinochloa oryzacola Vasing. [2]","Herbicidal effect grade, B: Scirpus juncoides (Scirpus juncoides [3])","herbicidal effect on E, grade 0-5 (Cyperus difformis)","Herbicidal effect grade, P: Stellaria media (Stellaria media)","Effect on crop grade, c: corn (corn)","N: Amaranthus retroflexus, herbicidal effect (criteria of Test Example 1) (Amaranthus retroflexus)","Q: Galium spurium, herbicidal effect (criteria of Test Example 1) (Galium spurium)","R: Veronica persica, herbicidal effect (criteria of Test Example 1) (Veronica persica)","d: soybean, effect on crop (criteria of Test Example 1) (soybean)","b: directly sowed rice plant, effect on crop (criteria of Test Example 1) (rice plant)","e: wheat, effect on crop (criteria of Test Example 1) (wheat)","P: Stellaria media, herbicidal effect grade (Stellaria media)","c: corn, effect on crop grade (corn)"
CON=C(C)CC1CC(OC(=O)COc2ccccc2)=C(c2c(C)cc(-c3ccc(Cl)cc3Cl)cc2C)C1=O (stereo not drawn) [6-092],0 (Herbicidal ratio of 5% or lower (almost no effect)),1 (Herbicidal ratio of 5% or higher and lower than 20%),0 (Herbicidal ratio of 5% or lower (almost no effect)),4 (Herbicidal ratio of 70% or higher and lower than 90%),0 (Herbicidal ratio of 5% or lower (almost no effect)),0 (Herbicidal ratio of 5% or lower (almost no effect)),0 (Herbicidal ratio of 5% or lower (almost no effect)),4 (Herbicidal ratio of 70% or higher and lower than 90%),4 (Herbicidal ratio of 70% or higher and lower than 90%),1 (Herbicidal ratio of 5% or higher and lower than 20%),4 (Herbicidal ratio of 70% or higher and lower than 90%),0 (Herbicidal ratio of 5% or lower (almost no effect)),,
CON=C(C)CC1CC(OC(=O)N2CCOCC2)=C(c2c(C)cc(-c3ccc(F)c(Cl)c3)cc2C)C1=O (stereo not drawn) [6-093],5 (Herbicidal ratio of 90% or more (almost completely withered)),5 (Herbicidal ratio of 90% or more (almost completely withered)),3 (Herbicidal ratio of 40% or higher and lower than 70%),4 (Herbicidal ratio of 70% or higher and lower than 90%),5 (Herbicidal ratio of 90% or more (almost completely withered)),0 (Herbicidal ratio of 5% or lower (almost no effect)),3 (Herbicidal ratio of 40% or higher and lower than 70%),5 (Herbicidal ratio of 90% or more (almost completely withered)),5 (Herbicidal ratio of 90% or more (almost completely withered)),2 (Herbicidal ratio of 20% or higher and lower than 40%),4 (Herbicidal ratio of 70% or higher and lower than 90%),5 (Herbicidal ratio of 90% or more (almost completely withered)),,
CON=C(C)CC1CC(OC(=O)N2CCOCC2)=C(c2c(C)cc(-c3ccc(Cl)cc3)cc2C)C1=O (mixture of isomers) [6-062],4 (Herbicidal ratio of 70% or higher and lower than 90%),5 (Herbicidal ratio of 90% or more (almost completely withered)),3 (Herbicidal ratio of 40% or higher and lower than 70%),5 (Herbicidal ratio of 90% or more (almost completely withered)),,,1 (Herbicidal ratio of 5% or higher and lower than 20%),5 (Herbicidal ratio of 90% or more (almost completely withered)),5 (Herbicidal ratio of 90% or more (almost completely withered)),0 (Herbicidal ratio of 5% or lower (almost no effect)),5 (Herbicidal ratio of 90% or more (almost completely withered)),5 (Herbicidal ratio of 90% or more (almost completely withered)),3 (Herbicidal ratio of 40% or higher and lower than 70%),0 (Herbicidal ratio of 5% or lower (almost no effect))
CON=C(C)CC1CC(O)=C(c2c(C)cc(-c3ncccn3)cc2C)C1=O (mixture of isomers) [6-057],3 (Herbicidal ratio of 40% or higher and lower than 70%),3 (Herbicidal ratio of 40% or higher and lower than 70%),2 (Herbicidal ratio of 20% or higher and lower than 40%),5 (Herbicidal ratio of 90% or more (almost completely withered)),,,1 (Herbicidal ratio of 5% or higher and lower than 20%),3 (Herbicidal ratio of 40% or higher and lower than 70%),4 (Herbicidal ratio of 70% or higher and lower than 90%),3 (Herbicidal ratio of 40% or higher and lower than 70%),5 (Herbicidal ratio of 90% or more (almost completely withered)),5 (Herbicidal ratio of 90% or more (almost completely withered)),0 (Herbicidal ratio of 5% or lower (almost no effect)),1 (Herbicidal ratio of 5% or higher and lower than 20%)
CON=C(C)CC1CC(O)=C(c2c(C)cccc2C)C1=O (stereo not drawn) [6-112],0 (Herbicidal ratio of 5% or lower (almost no effect)),3 (Herbicidal ratio of 40% or higher and lower than 70%),0 (Herbicidal ratio of 5% or lower (almost no effect)),4 (Herbicidal ratio of 70% or higher and lower than 90%),0 (Herbicidal ratio of 5% or lower (almost no effect)),1 (Herbicidal ratio of 5% or higher and lower than 20%),1 (Herbicidal ratio of 5% or higher and lower than 20%),0 (Herbicidal ratio of 5% or lower (almost no effect)),1 (Herbicidal ratio of 5% or higher and lower than 20%),3 (Herbicidal ratio of 40% or higher and lower than 70%),5 (Herbicidal ratio of 90% or more (almost completely withered)),4 (Herbicidal ratio of 70% or higher and lower than 90%),,
